Laboratory results reported in patent US9238619B2, “Phenalkylamine derivatives, pharmaceutical compositions containing them, and their use in therapy” (AbbVie Deutschland GmbH & Co. KG, priority 2010, dated 2016).
pKi: −log10 of the molar value. Counter-ions that a name gives are not always drawn.

Target: human GlyT1c transporter (Homo sapiens (Human), UniProt P48067)
Assay: Radioligand binding assays using recombinant CHO cell membranes expressing human GlyT1
Conditions: read-out: radioligand binding Kiapp
Protocol: Radioligand binding to human GlyT1c transporter-expressing membranes was determined as described in Mezler et al., Molecular Pharmacology 74:1705-1715, 2008.

human GlyT1c transporter, sequence (P48067 whole entry): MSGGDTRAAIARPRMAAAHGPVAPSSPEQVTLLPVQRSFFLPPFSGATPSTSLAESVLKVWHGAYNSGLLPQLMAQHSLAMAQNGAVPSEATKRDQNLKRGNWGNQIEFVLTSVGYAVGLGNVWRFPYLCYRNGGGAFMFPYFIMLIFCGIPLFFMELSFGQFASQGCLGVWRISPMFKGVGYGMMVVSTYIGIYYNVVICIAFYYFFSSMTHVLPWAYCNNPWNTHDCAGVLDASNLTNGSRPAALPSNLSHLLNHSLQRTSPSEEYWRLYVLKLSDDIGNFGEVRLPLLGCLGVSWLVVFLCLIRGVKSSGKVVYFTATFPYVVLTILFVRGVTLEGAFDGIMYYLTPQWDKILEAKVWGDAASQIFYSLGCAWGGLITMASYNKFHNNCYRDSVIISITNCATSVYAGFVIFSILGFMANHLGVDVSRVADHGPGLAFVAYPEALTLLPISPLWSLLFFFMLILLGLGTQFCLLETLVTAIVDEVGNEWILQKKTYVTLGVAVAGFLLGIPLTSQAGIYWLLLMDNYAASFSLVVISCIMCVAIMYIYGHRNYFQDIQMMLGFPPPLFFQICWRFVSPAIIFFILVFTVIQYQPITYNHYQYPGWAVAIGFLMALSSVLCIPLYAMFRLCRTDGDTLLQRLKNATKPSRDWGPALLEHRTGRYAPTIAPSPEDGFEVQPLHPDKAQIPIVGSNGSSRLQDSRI

Compound | pKi
O=S(=O)(CC1CC1)NCCOc1cccc(C2(Cc3ccccc3)CCNC2)c1 (stereo not shown) [Example 59, N-{2-[3-(3-Benzyl-pyrrolidin-3-yl)-phenoxy]-ethyl}-C-cyclopropyl-methanesulfonamide] | ≥ 7.00
CN1CCC(Cc2ccccc2)(c2cccc(OCCN(C)S(=O)(=O)c3cn(C)cn3)c2)C1 (stereo not shown) [Example 74, 1-Methyl-1H-imidazole-4-sulfonic acid {2-[3-(3-benzyl-1-methyl-pyrrolidin-3-yl)-phenoxy]-ethyl}-methyl-amide] | ≥ 6.00
Cn1cnc(S(=O)(=O)NCc2cccc(C(Cc3ccccc3)CN3CCOCC3)c2)c1 (stereo not shown) [Example 20, 1-Methyl-1H-imidazole-4-sulfonic acid 3-(1-benzyl-2-morpholin-4-yl-ethyl)benzylamide] | ≥ 5.00
Cn1cc(S(=O)(=O)NCCOc2cccc(C3(Cc4ccccc4)CCNC3)c2)cn1 (stereo not shown) [Example 60, 1-Methyl-1H-pyrazole-4-sulfonic acid {2-[3-(3-benzyl-pyrrolidin-3-yl)phenoxy]-ethyl}-amide] | ≥ 7.00
CC(C)N1CCC(Cc2ccccc2)(c2cccc(OCCNS(=O)(=O)c3cn(C)cn3)c2)C1 (stereo not shown) [Example 77, 1-Methyl-1H-imidazole-4-sulfonic acid {2-[3-(3-benzyl-1-isopropyl-pyrrolidin-3-yl)-phenoxy]-ethyl}-amide] | ≥ 6.00
Cn1cnc(S(=O)(=O)NCCOc2cccc(C3(Cc4ccccc4)CCNC3)c2)c1 (stereo not shown) [Example 61, 1-Methyl-1H-imidazole-4-sulfonic acid {2-[3-(3-benzyl-pyrrolidin-3-yl)phenoxy]-ethyl}-amide] | ≥ 7.00
Cn1cnc(S(=O)(=O)NCCOc2cccc(C3(Cc4ccccc4)CCN(C(=O)C(F)F)C3)c2)c1 (stereo not shown) [Example 71, 1-Methyl-1H-imidazole-4-sulfonic acid (2-{3-[3-benzyl-1-(2,2-difluoro-acetyl)pyrrolidin-3-yl]-phenoxy}-ethyl)-amide] | ≥ 6.00
Cn1cnc(S(=O)(=O)NCCOc2cccc(C3(Cc4ccccc4)CCN(CCF)C3)c2)c1 (stereo not shown) [Example 75] | ≥ 7.00
CN(Cc1cccc(C(CNC(=O)OC(C)(C)C)C2(c3ccc(Cl)cc3)CCC2)c1)S(=O)(=O)c1cn(C)cn1 (stereo not shown) [Example 41, tert-Butyl {2-[1-(4-chlorophenyl)cyclobutyl]-2-[3-({methyl[(1-methyl-1H-imidazol-4-yl)sulfonyl]amino}methyl)phenyl]ethyl}carbamate] | ≥ 5.00
CCCS(=O)(=O)N(C)Cc1cccc(C(CN)C2(c3ccc(Cl)cc3)CCC2)c1 (stereo not shown) [Example 42, N-(3-{2-Amino-1-[1-(4-chlorophenyl)cyclobutyl]ethyl}benzyl)-N-methylpropane-1-sulfonamide hydrochloride] | ≥ 5.00
CN(Cc1cccc(C(CN)C2(c3ccc(Cl)cc3)CCC2)c1)S(=O)(=O)CCCF (stereo not shown) [Example 43, N-(3-{2-Amino-1-[1-(4-chlorophenyl)cyclobutyl]ethyl}benzyl)-3-fluoro-N-methylpropane-1-sulfonamide hydrochloride] | ≥ 5.00
Cn1cnc(S(=O)(=O)NCCOc2cccc(C3(Cc4ccccc4)CN(CC(F)F)C3)c2)c1 [Example 55, 1-Methyl-1H-imidazole-4-sulfonic acid (2-{3-[3-benzyl-1-(2,2-difluoro-ethyl)azetidin-3-yl]-phenoxy}-ethyl)-amide] | ≥ 6.00
CN1CCC(Cc2ccccc2)(c2cccc(OCCNS(=O)(=O)c3cn(C)cn3)c2)C1 (stereo not shown) [Example 70, 1-Methyl-1H-imidazole-4-sulfonic acid {2-[3-(3-benzyl-1-methyl-pyrrolidin-3-yl)-phenoxy]-ethyl}-amide] | ≥ 7.00
CCOC(=O)N1CC(Cc2ccccc2)(c2cccc(OCCNS(=O)(=O)CC3CC3)c2)C1 [Example 48, 3-Benzyl-3-[3-(2-cyclopropylmethanesulfonylamino-ethoxy)-phenyl]-azetidine-1-carboxylic acid ethyl ester] | ≥ 6.00
Cn1cnc(S(=O)(=O)NCc2cccc(C(Cc3ccccc3)C(=O)N3CCOCC3)c2)c1 (stereo not shown) [Example 17, 1-Methyl-1H-imidazole-4-sulfonic acid 3-(1-benzyl-2-morpholin-4-yl-2-oxo-ethyl)-benzylamide] | ≥ 5.00
NCC(Cc1ccccc1)c1cccc(CNS(=O)(=O)CC2CC2)c1 (stereo not shown) [Example 14, N-[3-(2-Amino-1-benzyl-ethyl)-benzyl]-C-cyclopropyl-methanesulfonamide] | ≥ 5.00
CN(C)CC(Cc1ccccc1)c1cccc(CNS(=O)(=O)c2cn(C)cn2)c1 (stereo not shown) [Example 26, 1-Methyl-1H-imidazole-4-sulfonic acid 3-(1-benzyl-2-dimethylamino-ethyl)benzylamide] | ≥ 6.00
Cn1cnc(S(=O)(=O)NCCOc2cccc(C3(Cc4ccccc4)CN(CC(F)(F)F)C3)c2)c1 [Example 54, 1-Methyl-1H-imidazole-4-sulfonic acid (2-{3-[3-benzyl-1-(2,2,2-trifluoro-ethyl)azetidin-3-yl]-phenoxy}-ethyl)-amide] | ≥ 6.00

The next lines start with the values.

pKi | Compound
≥ 6.00 | Cn1cc(S(=O)(=O)NCCOc2cccc(C(CN)Cc3cccc(Cl)c3)c2)cn1 (stereo not shown) [Example 2, 1-Methyl-1H-pyrazole-4-sulfonic acid (2-{3-[2-amino-1-(3-chloro-benzyl)ethyl]-phenoxy}-ethyl)-amide, hydrochloride]
≥ 7.00 | CN(C)CC(Cc1ccccc1)c1cc(OCCNS(=O)(=O)c2cn(C)cn2)ccc1F (stereo not shown) [Example 23, 1-Methyl-1H-imidazole-4-sulfonic acid {2-[3-(1-benzyl-2-dimethylamino-ethyl)-4-fluoro-phenoxy]-ethyl}-amide]
≥ 6.00 | O=S(=O)(CC1CC1)NCc1cccc(C2(Cc3ccccc3)CCNC2)c1 (stereo not shown) [Example 68, N-[3-(3-Benzyl-pyrrolidin-3-yl)-benzyl]-C-cyclopropyl-methanesulfonamide]
≥ 7.00 | CN1CC(Cc2ccccc2)(c2cccc(OCCNS(=O)(=O)c3cn(C)cn3)c2)C1 [Example 78, 1-Methyl-1H-imidazole-4-sulfonic acid {2-[3-(3-benzyl-1-methyl-azetidin-3-yl)phenoxy]-ethyl}-amide]
≥ 6.00 | Cn1cnc(S(=O)(=O)NCCOc2ccc(F)c(C(CN)Cc3ccccc3)c2)c1 (stereo not shown) [Example 1, 1-Methyl-1H-imidazole-4-sulfonic acid {2-[3-(2-amino-1-benzyl-ethyl)-4-fluoro-phenoxy]-ethyl}-amide hydrochloride]
≥ 7.00 | CN(C)CC(Cc1ccccc1)c1cc(OCCNS(=O)(=O)c2cnn(C)c2)ccc1F (stereo not shown) [Example 33, 1-Methyl-1H-pyrazole-4-sulfonic acid {2-[3-(1-benzyl-2-dimethylamino-ethyl)-4-fluoro-phenoxy]-ethyl}-amide]
≥ 6.00 | CN(C)CC(Cc1ccccc1)c1cccc(OCCNS(=O)(=O)c2cn(C)cn2)c1 (stereo not shown) [Example 25, 1-Methyl-1H-imidazole-4-sulfonic acid {2-[3-(1-benzyl-2-dimethylaminoethyl)-phenoxy]-ethyl}-amide]
≥ 7.00 | CN1CC(Cc2ccccc2)(c2ccc(F)c(OCCNS(=O)(=O)c3cn(C)cn3)c2)C1 [Example 52, 1-Methyl-1H-imidazole-4-sulfonic acid {2-[5-(3-benzyl-1-methyl-azetidin-3-yl)-2-fluoro-phenoxy]-ethyl}-amide]
≥ 6.00 | O=S(=O)(CC1CC1)NCCOc1cccc(C2(Cc3ccccc3)CNC2)c1 [Example 49, N-{2-[3-(3-Benzyl-azetidin-3-yl)-phenoxy]-ethyl}-C-cyclopropyl-methane sulfonamide]
≥ 6.00 | Cn1cc(S(=O)(=O)NCc2cccc(C(Cc3ccccc3)CN3CCC3)c2)cn1 (stereo not shown) [Example 37, 1-Methyl-1H-pyrazole-4-sulfonic acid 3-(2-azetidin-1-yl-1-benzyl-ethyl)benzylamide, hydrochloride]
≥ 7.00 | CN1CCCC(Cc2ccccc2)(c2cccc(OCCNS(=O)(=O)c3cnn(C)c3)c2)C1 (stereo not shown) [Example 63, 1-Methyl-1H-pyrazole-4-sulfonic acid {2-[3-(3-benzyl-1-methyl-piperidin-3-yl)phenoxy]-ethyl}-amide]
≥ 7.00 | Cn1cc(S(=O)(=O)NCCOc2cccc(C3(Cc4ccccc4)CNC3)c2)cn1 [Example 50, 1-Methyl-1H-pyrazole-4-sulfonic acid {2-[3-(3-benzyl-azetidin-3-yl)-phenoxy]-ethyl}-amide]
≥ 7.00 | Cn1cc(S(=O)(=O)NCCOc2cccc(C(CN)Cc3cccc(C(F)(F)F)c3)c2)cn1 (stereo not shown) [Example 10, 1-Methyl-1H-pyrazole-4-sulfonic acid (2-{3-[2-amino-1-(3-trifluoromethylbenzyl)-ethyl]-phenoxy}-ethyl)-amide, hydrochloride]
≥ 6.00 | Cn1cnc(S(=O)(=O)NCCOc2cccc(C(CN)Cc3cccc(Cl)c3)c2)c1 (stereo not shown) [Example 9, 1-Methyl-1H-imidazole-4-sulfonic acid (2-{3-[2-amino-1-(3-chloro-benzyl)ethyl]-phenoxy}-ethyl)-amide, hydrochloride]
≥ 6.00 | CN1CCC(Cc2ccccc2)(c2cccc(CNS(=O)(=O)c3cnn(C)c3)c2)C1 (stereo not shown) [Example 69, 1-Methyl-1H-pyrazole-4-sulfonic acid 3-(3-benzyl-1-methyl-pyrrolidin-3-yl)-benzylamide]
≥ 7.00 | Cn1cc(S(=O)(=O)NCCOc2cc(C(CN)Cc3ccccc3)ccc2F)cn1 (stereo not shown) [Example 3, 1-Methyl-1H-pyrazole-4-sulfonic acid {2-[5-(2-amino-1-benzyl-ethyl)-2-fluoro-phenoxy]-ethyl}-amide, hydrochloride]
≥ 7.00 | CN(C)CC(Cc1cccc(C(F)(F)F)c1)c1cccc(OCCNS(=O)(=O)c2cn(C)cn2)c1 (stereo not shown) [Example 29, 1-Methyl-1H-imidazole-4-sulfonic acid (2-{3-[2-dimethylamino-1-(3-trifluoromethyl-benzyl)-ethyl]-phenoxy}-ethyl)-amide]
≥ 7.00 | CN(C)CC(Cc1ccccc1)c1cc(OCCNS(=O)(=O)c2cnn(C)c2)ccc1Cl (stereo not shown) [Example 30, 1-Methyl-1H-pyrazole-4-sulfonic acid {2-[3-(1-benzyl-2-dimethylamino-ethyl)-4-chloro-phenoxy]-ethyl}-amide, hydrochloride]
≥ 7.00 | Cn1cnc(S(=O)(=O)NCCOc2cccc(C(CN)Cc3ccccc3)c2)c1 (stereo not shown) [Example 5, 1-Methyl-1H-imidazole-4-sulfonic acid {2-[3-(2-amino-1-benzyl-ethyl)phenoxy]-ethyl}-amide]
